In the supplement of paper PMC10627819:

What was measured:
Test in all cases: fitness (endpoint OD595 vs no drug) (fraction); higher = more growth
B. subtilis 168 = system: B. subtilis 168
Summary of the method: (§1)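 Bacterial fitness was scored as optical density at the stationary-phase transition relative to the robust mean of no-drug control wells. Scores are capped at 1. The growth data were OD595 readings every 30 min for 14 h at 37 °C, background-subtracted against the first reading, from 384-well plates inoculated at OD595 0.01 in TSB, LB Lennox or CY.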

S. aureus DSM 20231 = system: S. aureus DSM 20231
Summary of the method: as §1

S. pneumoniae D39V = system: S. pneumoniae D39V
Summary of the method: as §1

[1] = first compound 0.0475 µg/mL, partner 2 µg/mL
[2] = first compound 0.0475 µg/mL, partner 4 µg/mL
[3] = first compound 0.095 µg/mL, partner 2 µg/mL
[4] = first compound 0.095 µg/mL, partner 4 µg/mL
[5] = first compound 0.19 µg/mL, partner 2 µg/mL
[6] = first compound 0.19 µg/mL, partner 4 µg/mL
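Note: OD595 on entry to stationary phase over no-drug wells; at most 1.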

CN(C)[C@@H]1C(O)=C(C(N)=O)C(=O)[C@@]2(O)C(O)=C3C(=O)c4c(O)ccc(Cl)c4[C@@](C)(O)[C@H]3C[C@@H]12 [Chlortetracycline] + COc1c(N2C[C@@H]3CCCN[C@@H]3C2)c(F)cc2c(=O)c(C(=O)O)cn(C3CC3)c12 [Moxifloxacin]
fitness (B. subtilis 168; first compound 0.0475 µg/mL, partner 0.0312 µg/mL): 0.0451 | fitness (B. subtilis 168; first compound 0.0475 µg/mL, partner 0.0625 µg/mL): 0.0327 | fitness (B. subtilis 168; first compound 0.0475 µg/mL, partner 0.125 µg/mL): 0.0439 | fitness (B. subtilis 168; [1]): 0.0242 | fitness (B. subtilis 168; [2]): 0.0248 | fitness (B. subtilis 168; first compound 0.0475 µg/mL, partner 8 µg/mL): 0.0159 | fitness (B. subtilis 168; first compound 0.095 µg/mL, partner 0.0312 µg/mL): 0.104 | fitness (B. subtilis 168; first compound 0.095 µg/mL, partner 0.0625 µg/mL): 0.0278 | fitness (B. subtilis 168; first compound 0.095 µg/mL, partner 0.125 µg/mL): 0.0296 | fitness (B. subtilis 168; [3]): 0.0289 | fitness (B. subtilis 168; [4]): 0.0255 | fitness (B. subtilis 168; first compound 0.095 µg/mL, partner 8 µg/mL): 0.0155 | fitness (B. subtilis 168; first compound 0.19 µg/mL, partner 0.0312 µg/mL): 0.0533 | fitness (B. subtilis 168; first compound 0.19 µg/mL, partner 0.0625 µg/mL): 0.0332 | fitness (B. subtilis 168; first compound 0.19 µg/mL, partner 0.125 µg/mL): 0.0433 | fitness (B. subtilis 168; [5]): 0.0261 | fitness (B. subtilis 168; [6]): 0.0247 | fitness (B. subtilis 168; first compound 0.19 µg/mL, partner 8 µg/mL): 0.0129 | fitness (S. aureus DSM 20231; first compound 0.006 µg/mL, partner 0.0075 µg/mL, one replicate): 0.729 | fitness (S. aureus DSM 20231; first compound 0.006 µg/mL, partner 0.015 µg/mL, one replicate): 0.719 | fitness (S. aureus DSM 20231; first compound 0.006 µg/mL, partner 0.03 µg/mL, one replicate): 0.621 | fitness (S. aureus DSM 20231; first compound 0.012 µg/mL, partner 0.0075 µg/mL): 0.558 | fitness (S. aureus DSM 20231; first compound 0.012 µg/mL, partner 0.015 µg/mL): 0.539 | fitness (S. aureus DSM 20231; first compound 0.012 µg/mL, partner 0.03 µg/mL): 0.604 | fitness (S. aureus DSM 20231; first compound 0.012 µg/mL, partner 0.06 µg/mL, one replicate): 0.659 | fitness (S. aureus DSM 20231; first compound 0.012 µg/mL, partner 0.12 µg/mL, one replicate): 0.548 | fitness (S. aureus DSM 20231; first compound 0.024 µg/mL, partner 0.0075 µg/mL): 0.193 | fitness (S. aureus DSM 20231; first compound 0.024 µg/mL, partner 0.015 µg/mL): 0.177 | fitness (S. aureus DSM 20231; first compound 0.024 µg/mL, partner 0.06 µg/mL, one replicate): 0.66 | fitness (S. aureus DSM 20231; first compound 0.024 µg/mL, partner 0.12 µg/mL, one replicate): 0.535 | fitness (S. aureus DSM 20231; first compound 0.048 µg/mL, partner 0.0075 µg/mL): 0.185 | fitness (S. aureus DSM 20231; first compound 0.048 µg/mL, partner 0.015 µg/mL): 0.172 | fitness (S. aureus DSM 20231; first compound 0.048 µg/mL, partner 0.03 µg/mL): 0.132 | fitness (S. aureus DSM 20231; first compound 0.048 µg/mL, partner 0.06 µg/mL, one replicate): 0.14 | fitness (S. aureus DSM 20231; first compound 0.048 µg/mL, partner 0.12 µg/mL, one replicate): 0.165 | fitness (S. pneumoniae D39V; first compound 0.012 µg/mL, partner 0.005 µg/mL): 0.907 | fitness (S. pneumoniae D39V; first compound 0.012 µg/mL, partner 0.01 µg/mL): 0.923 | fitness (S. pneumoniae D39V; first compound 0.012 µg/mL, partner 0.02 µg/mL): 0.765 | fitness (S. pneumoniae D39V; first compound 0.024 µg/mL, partner 0.005 µg/mL): 0.863 | fitness (S. pneumoniae D39V; first compound 0.024 µg/mL, partner 0.01 µg/mL): 0.915 | fitness (S. pneumoniae D39V; first compound 0.024 µg/mL, partner 0.02 µg/mL): 0.844 | fitness (S. pneumoniae D39V; first compound 0.048 µg/mL, partner 0.005 µg/mL): 0.821 | fitness (S. pneumoniae D39V; first compound 0.048 µg/mL, partner 0.01 µg/mL): 0.871 | fitness (S. pneumoniae D39V; first compound 0.048 µg/mL, partner 0.02 µg/mL): 0.78 | fitness (S. pneumoniae D39V; first compound 0.375 µg/mL, partner 0.0312 µg/mL): 0.0285 | fitness (S. pneumoniae D39V; first compound 0.375 µg/mL, partner 0.0625 µg/mL): 0.0351 | fitness (S. pneumoniae D39V; first compound 0.375 µg/mL, partner 0.125 µg/mL): 0.0309 | fitness (S. pneumoniae D39V; first compound 0.75 µg/mL, partner 0.0312 µg/mL): 0.0253 | fitness (S. pneumoniae D39V; first compound 0.75 µg/mL, partner 0.0625 µg/mL): 0.0219 | fitness (S. pneumoniae D39V; first compound 0.75 µg/mL, partner 0.125 µg/mL): 0.0157 | fitness (S. pneumoniae D39V; first compound 1.5 µg/mL, partner 0.0312 µg/mL): 0.0473 | fitness (S. pneumoniae D39V; first compound 1.5 µg/mL, partner 0.0625 µg/mL): 0.0386 | fitness (S. pneumoniae D39V; first compound 1.5 µg/mL, partner 0.125 µg/mL): 0.0409

CN(C)[C@@H]1C(O)=C(C(N)=O)C(=O)[C@@]2(O)C(O)=C3C(=O)c4c(O)ccc(Cl)c4[C@@](C)(O)[C@H]3C[C@@H]12 [Chlortetracycline] + Cc1cc(NS(=O)(=O)c2ccc(N)cc2)no1 [Sulfamethoxazol]
fitness (B. subtilis 168; first compound 0.0475 µg/mL, partner 0.5 µg/mL, one replicate): 0.905 | fitness (B. subtilis 168; first compound 0.0475 µg/mL, partner 1 µg/mL): 0.9 | fitness (B. subtilis 168; [1]): 0.852 | fitness (B. subtilis 168; [2]): 0.907 | fitness (B. subtilis 168; first compound 0.095 µg/mL, partner 0.5 µg/mL, one replicate): 0.837 | fitness (B. subtilis 168; first compound 0.095 µg/mL, partner 1 µg/mL): 0.78 | fitness (B. subtilis 168; [3]): 0.725 | fitness (B. subtilis 168; [4]): 0.779 | fitness (B. subtilis 168; first compound 0.19 µg/mL, partner 0.5 µg/mL, one replicate): 0.449 | fitness (B. subtilis 168; first compound 0.19 µg/mL, partner 1 µg/mL): 0.548 | fitness (B. subtilis 168; [5]): 0.527 | fitness (B. subtilis 168; [6]): 0.5 | fitness (S. aureus DSM 20231; first compound 0.006 µg/mL, partner 1 µg/mL, one replicate): 0.724 | fitness (S. aureus DSM 20231; first compound 0.006 µg/mL, partner 2 µg/mL, one replicate): 0.733 | fitness (S. aureus DSM 20231; first compound 0.006 µg/mL, partner 4 µg/mL, one replicate): 0.761 | fitness (S. aureus DSM 20231; first compound 0.012 µg/mL, partner 1 µg/mL): 0.509 | fitness (S. aureus DSM 20231; first compound 0.012 µg/mL, partner 2 µg/mL): 0.533 | fitness (S. aureus DSM 20231; first compound 0.012 µg/mL, partner 4 µg/mL): 0.573 | fitness (S. aureus DSM 20231; first compound 0.024 µg/mL, partner 1 µg/mL): 0.256 | fitness (S. aureus DSM 20231; first compound 0.024 µg/mL, partner 2 µg/mL): 0.234 | fitness (S. aureus DSM 20231; first compound 0.024 µg/mL, partner 4 µg/mL): 0.264 | fitness (S. aureus DSM 20231; first compound 0.048 µg/mL, partner 1 µg/mL): 0.0878 | fitness (S. aureus DSM 20231; first compound 0.048 µg/mL, partner 2 µg/mL): 0.0579 | fitness (S. aureus DSM 20231; first compound 0.048 µg/mL, partner 4 µg/mL): 0.059 | fitness (S. pneumoniae D39V; first compound 0.012 µg/mL, partner 1 µg/mL, one replicate): 0.929 | fitness (S. pneumoniae D39V; first compound 0.012 µg/mL, partner 2 µg/mL, one replicate): 0.951 | fitness (S. pneumoniae D39V; first compound 0.012 µg/mL, partner 4 µg/mL, one replicate): 0.865 | fitness (S. pneumoniae D39V; first compound 0.024 µg/mL, partner 1 µg/mL, one replicate): 0.851 | fitness (S. pneumoniae D39V; first compound 0.024 µg/mL, partner 2 µg/mL, one replicate): 0.88 | fitness (S. pneumoniae D39V; first compound 0.024 µg/mL, partner 4 µg/mL, one replicate): 0.806 | fitness (S. pneumoniae D39V; first compound 0.048 µg/mL, partner 1 µg/mL, one replicate): 0.793 | fitness (S. pneumoniae D39V; first compound 0.048 µg/mL, partner 2 µg/mL, one replicate): 0.797 | fitness (S. pneumoniae D39V; first compound 0.048 µg/mL, partner 4 µg/mL, one replicate): 0.743 | fitness (S. pneumoniae D39V; first compound 0.375 µg/mL, partner 1 µg/mL): 0.0312 | fitness (S. pneumoniae D39V; first compound 0.375 µg/mL, partner 2 µg/mL): 0.0347 | fitness (S. pneumoniae D39V; first compound 0.375 µg/mL, partner 4 µg/mL): 0.0394 | fitness (S. pneumoniae D39V; first compound 0.75 µg/mL, partner 1 µg/mL): 0.0329 | fitness (S. pneumoniae D39V; first compound 0.75 µg/mL, partner 2 µg/mL): 0.0284 | fitness (S. pneumoniae D39V; first compound 0.75 µg/mL, partner 4 µg/mL): 0.0259 | fitness (S. pneumoniae D39V; first compound 1.5 µg/mL, partner 1 µg/mL): 0.0307 | fitness (S. pneumoniae D39V; first compound 1.5 µg/mL, partner 2 µg/mL): 0.0374 | fitness (S. pneumoniae D39V; first compound 1.5 µg/mL, partner 4 µg/mL): 0.0403
